Experimental data as given in publication PMC4814904, “Redox proteins of hydroxylating bacterial dioxygenases establish a regulatory cascade that prevents gratuitous induction of tetralin biodegradation genes” (Scientific Reports, 2016).
Like-named read-outs stand apart in the source and are kept apart here. Each block holds one compound with its values, some of them ahead of it.

Key:
[1] = target: T1, ThnA4 (ThnA4-His6), NAD(P)H-dependent ferredoxin reductase of tetralin dioxygenase (Sphingopyxis macrogoltabida, UniProt Q8GJE9); assay: stopped-flow pre-steady-state reduction of ThnA4ox, fit of kA→B; assay type: biochemical; settings: oxidized enzyme, potassium phosphate 50 mM pH 7.4, NaCl 10 mM, glycerine 5%, 15 °C, hydride donor
T1 construct: full length, 339 residues, C-terminal His6 (pET23b, plasmid pMPO784), E. coli NCM631 host; plant-type [2Fe-2S]; FAD-reconstituted

[2] = target: T1, ThnA4 (ThnA4-His6), NAD(P)H-dependent ferredoxin reductase of tetralin dioxygenase; assay: UV-visible spectrum after FAD reconstitution; assay type: binding; settings: 2 mM FAD added during cell disruption; FAD partly lost during purification

T1 sequence (Q8GJE9 entry or part of it): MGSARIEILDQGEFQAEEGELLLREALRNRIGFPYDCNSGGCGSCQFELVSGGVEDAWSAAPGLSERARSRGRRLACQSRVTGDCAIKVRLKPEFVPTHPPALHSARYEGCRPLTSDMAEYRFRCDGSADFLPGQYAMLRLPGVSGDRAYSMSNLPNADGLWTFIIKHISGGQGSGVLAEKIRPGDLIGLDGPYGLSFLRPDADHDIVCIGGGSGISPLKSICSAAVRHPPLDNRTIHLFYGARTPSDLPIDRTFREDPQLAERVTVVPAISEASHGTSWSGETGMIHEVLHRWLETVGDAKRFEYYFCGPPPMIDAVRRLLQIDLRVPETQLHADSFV

- Kd ([1]; read-out: Kd^NADPH): 54 ± 13 µM
SMILES: NC(=O)C1=CN([C@@H]2O[C@H](COP(=O)(O)OP(=O)(O)OC[C@H]3O[C@@H](n4cnc5c(N)ncnc54)[C@H](OP(=O)(O)O)[C@@H]3O)[C@@H](O)[C@H]2O)C=CC1 [NADPH]

SMILES: Cc1cc2nc3c(=O)[nH]c(=O)nc-3n(C[C@H](O)[C@H](O)[C@H](O)COP(=O)(O)OP(=O)(O)OC[C@H]3O[C@@H](n4cnc5c(N)ncnc54)[C@H](O)[C@@H]3O)c2cc1C [FAD]
- UV-visible spectrum after FAD reconstitution [2]: reconstituted ThnA4-His6 contains the expected FAD and [2Fe-2S] redox centers

- Kd ([1]; upper limit estimated from saturation profile, read-out: Kd^NADH): < 0.4 µM
SMILES: NC(=O)C1=CN([C@@H]2O[C@H](COP(=O)(O)OP(=O)(O)OC[C@H]3O[C@@H](n4cnc5c(N)ncnc54)[C@H](O)[C@@H]3O)[C@@H](O)[C@H]2O)C=CC1 [NADH]
